Legend:
MCF-7 cells = assay: SiNW-ECIS impedance and capacitance measurement of drug-treated MCF-7 cells; type: cell-based, human; conditions: for change of norm in impedance of treated cells, T1 vs. T2: 2 hours vs. 6 hours after drug incubation; for norm of capacitive changes, control sample more than treated sample: 6 hours after drug incubation (T2)
Experimental: In this example, the diagnostic response of cells membrane to extremely low dose of antitubulin drugs is investigated. Initially, MCF-7 cell lines, isolated from grade I human breast tumors, were obtained from the National Cell Bank of Iran (Pasteur Institute). Then, cells were maintained in a CO2 incubator (37° C., 5% CO2) in RPMI-1640 medium supplemented with 5% fetal bovine serum, and 1% penicillin/streptomycin. The fresh medium was replaced every other day. Then, the cultured cells were dropped on the surface of the SiNW-ECIS, designed and fabricated pursuant to teachings of the present application. Prior to each experiment, cells were trypsinized to be detached from the substrate and resuspended on the SiNW surface. To minimize the effect of trypsinization, the procedure may last for less than 4 minutes at room temperature of about 20° C. The samples were held in an incubator for about 4 hours to achieve cells attachment on the SiNWs. Thereafter, the ABZ drug with low concentrations of about 2.1 nano-moles per liter and the PTX drug with low concentrations of about 0.1 nano-moles per liter were added to individual samples. Finally, the signal recording and biological assays were investigated about 2 hours and 6 hours after the drug treatment (6 hours and 10 hours after the beginning of culturing process).
Referring to FIGS. 12A-12G, comparative normalized diagrams of impedance (designated by ΔZ % and represented by solid black lines) and capacitance changes (designated by ΔC % and represented by dashed grey lines) are illustrated for MCF-7 cells seeded on SiNW electrodes after treating by 2.1 nano-moles per liter of ABZ and 0.1 nano-moles per liter of PTX. The time interval between the drug incubation and the signal extraction are 2 hours (designated by T1) and 6 hours (designated by T2). In addition, the same diagrams are plotted for control sample prepared with no drug treatment stage.
According to the method described in the present example, the samples were maintained in an incubator so that the signal extraction was repeated 10 hours after cells dropping (6 hours after drug incubation for treated samples) to monitor the time evolution of drug induced MT polymerization/depolymerization on bioelectrical response of the membrane.

[1] = tested on: tubulin assemblies of MCF-7 cells; assay: Confocal microscopy of tubulin assemblies of MCF-7 cells; type: cell-based, human
Experimental: In addition, an un-treated control sample was prepared as reference for comparison. Then, samples were washed with PBS and permeabilized with microtubule stabilizing buffer [80 mM PIPES-KOH (pH 6.8), 5 mM EGTA, and 1 mM MgCl2 containing 0.5% Triton X-100] for 5 min at room temperature before being fixed with chilled absolute methanol for 10 min at −20° C. Thereafter, the fixed cells were washed and incubated with monoclonal mouse anti-α-tubulin antibody (Sigma Co.) for 1 hour at room temperature followed by incubation with FITC-conjugated antimouse IgG antibody (Santa Cruz Biotechnology). The stained cells were mounted with Vectashield (Vector Laboratories, Burlingame, Calif.) and observed by confocal microscopy.

[2] = MCF-7, PTX 0.1 nano-moles per liter, 2 hours after treatment (T1)
[3] = MCF-7, PTX 0.1 nano-moles per liter
[4] = MCF-7, ABZ 2.1 nano-moles per liter, 2 hours after drug incubation (T1)
[5] = MCF-7, ABZ 2.1 nano-moles per liter

SMILES	variation in mean capacitance of the sensor versus control (MCF-7 cells; [2])	variation in mean impedance of the sensor versus control (MCF-7 cells; [2])	change of norm in impedance of treated cells, T1 vs. T2 (MCF-7 cells; [3]) [%]	norm of capacitive changes, control sample more than treated sample (MCF-7 cells; [3]) [%]	spindle / microtubule morphology (confocal image) ([1]; MCF-7, PTX 0.1 nano-moles per liter, 2 hours after treatment)	spindle / microtubule morphology (confocal image) ([1]; MCF-7, PTX 0.1 nano-moles per liter, 6 hours after treatment)	changes in membrane impedance versus control (MCF-7 cells; [4]) [%]	variations in capacitance of the sensor versus control (MCF-7 cells; [4]) [%]	change of norm in impedance of treated cells, T1 vs. T2 (MCF-7 cells; [5])	norm of capacitive changes, control sample more than treated sample (MCF-7 cells; [5])	spindle / microtubule morphology (confocal image) ([1]; MCF-7, ABZ 2.1 nano-moles per liter, 2 hours after treatment)	spindle / microtubule morphology (confocal image) ([1]; MCF-7, ABZ 2.1 nano-moles per liter, 6 hours after treatment)
CC(=O)O[C@H]1C(=O)[C@@]2(C)[C@H]([C@H](OC(=O)c3ccccc3)[C@]3(O)C[C@H](OC(=O)[C@H](O)[C@@H](NC(=O)c4ccccc4)c4ccccc4)C(C)=C1C3(C)C)[C@]1(OC(C)=O)CO[C@@H]1C[C@@H]2O [PTX, Paclitaxel]	about 60%	about 50%	15	~75	aggregated spindles	increased aggregation in MT spindles						
CCCSc1ccc2nc(NC(=O)OC)[nH]c2c1 [ABZ, Albendazole]							25	70	about 60%	about 90%	abnormally reduced numbers of spindles or monopolar (monoaster) spindles	monoastered MTs are observable

Source: patent publication US20160178628A1, “Electrical Cell-substrate Impedance Sensor (ECIS)” (priority 2015, published 2016)
